Source: patent US6017933A, “Mannich bases of conjugated styryl ketones” (University of Saskatchewan Technologies Inc., priority 1999, dated 2000)
Where “and” joins values, the source holds several entries; their conditions need not be identical. Identical values can stand only once. Entries after “also recorded” stand apart in the source; their conditions may differ. Counter-ions that a name gives are not always drawn. Like-named read-outs stand apart in the source and are kept apart here.

Columns and labels:
L1210 cells = assay: Cytotoxicity, murine L1210 leukemic cells; assay type: cell-based; details: Mus musculus, mean
human WiDr colon cancer = details: hydrobromide salt; human WiDr colon cancer in vitro; cited from earlier work
CEM cells = assay: Cytotoxicity, CEM human T-lymphocytes; details: for IC50: Homo sapiens, CCRF-CEM; for TIL1210 (CEM cells): IC50 T-lymphocytes (CEM)/IC50 L1210; for TIP388 (CEM cells): IC50 T-lymphocytes (CEM)/IC50 P388
Molt 4/C8 cells = assay: Cytotoxicity, Molt 4/C8 human T-lymphocytes; details: for TIL1210 (Molt 4/C8 cells): IC50 T-lymphocytes (Molt 4/C8)/IC50 L1210; for TIP388 (Molt 4/C8 cells): IC50 T-lymphocytes (Molt 4/C8)/IC50 P388
P388 cells = assay: Cytotoxicity, murine P388 leukemic cells (P388 D1); details: read-out: P388 cells IC50
[1] = system: Aspergillus fumigatus conidia; assay: Kill-curve experiment, Aspergillus fumigatus conidia; assay type: cell-based
Description: Kill-Curve Experiment: 5 ml conidial suspension each of the AMB-, and ITZ-susceptible (W73355) and the resistant (AB16.4 and ITZ70) isolates prepared in PYG broth (1×10^6 conidia/ml) was incubated at 35° C. in the presence of 5 μm of AMB or 5 μm ITZ or 50 μm Compound 9b. At various time intervals, 0.1 ml aliquots of the conidial suspension were removed, diluted appropriately to obtain 10^2 to 10^4 fold dilution, and 0.1 ml aliquots were spread in duplicate on PYG agar plates. […] Identical treatment of the conidial suspension in the absence of the drug was used as the growth control.

Aspergillus fumigatus [2] = assay: Murine pulmonary aspergillosis model; assay type: in vivo, Aspergillus fumigatus in DBA/2J female mice
Description: In vivo susceptibility studies: DBA/2J female mice (Jackson Laboratories) weighing 20-23 grams (≈6 weeks old) were used. The mice were immunosuppressed by 3 consecutive subcutaneous injections (0.5 ml each) of cortisone acetate (250 mg/kg; Sigma Chemical Company) in sterile distilled water containing 0.1% Tween 80. The immunosuppressed mice were anesthetized by exposing to ether in a desiccator for 45±5 seconds and infected with 20 μl inoculum containing 1×10^6 conidia delivered to the nares of the animals as a single droplet from a micropipet. Compound 9b and AMB were dissolved in dimethyl sulfoxide (DMSO) and administered 24 hr post infection by intraperitoneal injection in 0.2 ml PBS per dose. […] The efficacy of chemotherapy was assessed by determining percent survival and the fungal load (CFU/lungs) of infected animals as determined by semiquantitative organ culture.

Candida albicans = assay: Vaginal candidiasis in ovariectomized rats; assay type: in vivo, Candida albicans in ovariectomized rats; details: in Mineral Oil
Description: As well, ovariectomized rats predisposed for Candida albicans infection by estrogen treatment were infected vaginally with 1×10^7 CFU per ml to produce vaginal candidiasis. The infected animals were treated with Compound 9b once daily (100 mg/kg=2 mg/[…]) for 5 days. Vaginal fluid was collected from each animal 72 hr post-treatment and CFUs per rat were determined by plating the […] fluid on PYG agar containing 200 ug/ml gentamicin.

[3] = system: pathogenic yeasts and filamentous fungi; assay: Screening of conjugated styryl ketones against pathogenic yeasts and filamentous fungi; assay type: cell-based
Source text: Approximately 90 compounds belonging to the conjugated styryl ketone class were screened for their activity against pathogenic yeasts and filamentous fungi. […] Since none of the previously examined compounds provided encouraging results for further studies, a series of α,β-unsaturated ketones with two sites for thiol alkylation reaction were synthesized.

Aspergillus fumigatus [4] = assay: MIC and MLC, Aspergillus fumigatus, broth macrodilution
human tumors = assay: Cytotoxicity, human tumor cell line panel (approximately 55 lines)
[5] = system: AMB-resistant Aspergillus fumigatus; assay: MIC and MLC, AMB-resistant Aspergillus fumigatus, broth macrodilution; details: for MIC: 48 h
[6] = system: ITZ-resistant Aspergillus fumigatus; assay: MIC and MLC, ITZ-resistant Aspergillus fumigatus, broth macrodilution; details: for MIC: 48 h

## CCN(CC)CC(C)(C)C(=O)/C=C/c1ccc(Cl)cc1 [Compound 7]
L1210 cells
  IC50: 6.39 µM
Human WiDr colon cancer
  activity relative to 5-fluorouracil: 1.3 times
CEM cells; read-out: CEM cells IC50
  IC50: 1.94 µM
CEM cells
  TIL1210 (CEM cells): 0.30
  TIP388 (CEM cells): 0.88
Molt 4/C8 cells
  TIL1210 (Molt 4/C8 cells): 1.13
  TIP388 (Molt 4/C8 cells): 3.29
Molt 4/C8 cells; human T-lymphocytes
  TIP388 and TIL1210 compared with compound 1b: inferior TIP388 and TIL1210 values than compound 1b
Molt 4/C8 cells; read-out: Molt 4/C8 cells IC50
  IC50: 7.24 µM
P388 cells
  IC50: 2.2 µM

## CCN1CCC(O)(/C=C/c2ccc(Cl)cc2)C(C(=O)/C=C/c2ccc(Cl)cc2)C1 (centres unmarked) [Compound 9b, (3-[3-(4-chlorophenyl)-2-propenoyl]-4-[2-(4-chlorophenyl)vinylene]-1-ethyl-4-piperidinol hydrochloride]
L1210 cells
  IC50: 6.96 µM
[1]; Aspergillus fumigatus, 50 μm, within 24 hr
  killing at 50 µM: ≥ 90%
[1]; data not shown
  fungicidal activity against AMB-resistant and ITZ-resistant isolates: as susceptible to the fungicidal activity of Compound 9b as the susceptible one
Aspergillus fumigatus [2]; 6.25 mg/kg/day
  reduction in CFU/lung: 50%
Aspergillus fumigatus [2]; 6.5 mg/kg/day for five days, mice
  mortality rate: did not show any greater mortality rate than the placebo or the AMB-treated groups
Aspergillus fumigatus [2]; mouse, in vivo, hydrochloride
  fungal load of infected animals (in words): reduced significantly; also recorded: not as efficient as AMB for the reduction of fungal load
Aspergillus fumigatus [2]; vs DMSO placebo
  survival of infected animals: did not improve significantly over the placebo group
Candida albicans
  % CFU reduction: 97.4%
Candida albicans; mean of 6 animals, S.D. 1.7 × 10^4
  Mean Value CFU/rat: 1.2 × 10^4 CFU/rat
Candida albicans; individual animals, 100 mg/kg once daily for 5 days, 72 hr post-treatment, hydrochloride, 100 mg/kg
  CFU/rat: 4.6 × 10^4 CFU/rat and 4.2 × 10^3 CFU/rat and 8.3 × 10^2 CFU/rat and 1.7 × 10^4 CFU/rat and 3.5 × 10^2 CFU/rat and 6.5 × 10^3 CFU/rat
[3]
  antifungal activity (in words): activity against both pathogenic yeasts and filamentous fungi at low concentrations
CEM cells; read-out: CEM cells IC50
  IC50: 20.1 µM
CEM cells; read-out: IC50 CEM
  IC50: 20.1 µM
CEM cells
  TIL1210 (CEM cells): 2.89
  TIP388 (CEM cells): 18.31
CEM cells; IC50 T-lymphocytes (CEM)/IC50 human tumors
  TIht (CEM cells): 0.78
Molt 4/C8 cells
  TIL1210 (Molt 4/C8 cells): 4.46
  TIP388 (Molt 4/C8 cells): 28.24
Molt 4/C8 cells; IC50 T-lymphocytes (Molt 4/C8)/IC50 human tumors
  TIht (Molt 4/C8 cells): 1.21
Molt 4/C8 cells; read-out: IC50 Molt 4/C8
  IC50: 31.1 µM
Molt 4/C8 cells; read-out: Molt 4/C8 cells IC50
  IC50: 31.1 µM
P388 cells
  IC50: 1.1 µM
Aspergillus fumigatus [4]; Aspergillus fumigatus, 48 h, read-out: MIC Mean ± SD
  MIC: 11.9 ± 5.32 µM
Aspergillus fumigatus [4]; Aspergillus fumigatus, 48 h, read-out: MIC Range
  MIC: 6.25 to 25 µM
Aspergillus fumigatus [4]; Aspergillus fumigatus, read-out: MLC Range
  MFC: 12.5 to 25 µM
Aspergillus fumigatus [4]; Aspergillus fumigatus, read-out: mean MIC value
  MIC: 11.9 µM
Aspergillus fumigatus [4]; susceptible isolates
  effectiveness compared with ITZ and AMB: less effective than ITZ and AMB in susceptible isolates
Aspergillus fumigatus [4]; various Aspergillus fumigatus isolates
  MLC values relative to MIC values: either the same as or twofold higher than the MIC values
Human tumors; mammalian cells (human tumor; b359 also Molt 4/C8 and CEM)
  IC50 relative to mean MIC for Aspergillus fumigatus: 2-3 fold
Human tumors; read-out: human tumors IC50, mean graph midpoint, approximately 55 cell lines, hydrobromide salts used for 4a, 11a-e
  IC50: 25.7 µM
Human tumors; read-out: mean IC50 value for 55 different human tumour cells
  IC50: 25.7 µM
[5]; read-out: MIC Mean ± SD
  MIC: 9.85 ± 3.53 µM
[5]; read-out: MIC Range
  MIC: 6.25 to 12.5 µM
[5]; read-out: MLC Range
  MFC: 12 to 25 µM
[6]; read-out: MIC Mean ± SD
  MIC: 10.9 ± 6.35 µM
[6]; read-out: MIC Range
  MIC: 3.12 to 25 µM
[6]; read-out: MLC Range
  MFC: 6.25 to 25 µM
